pIC50: −log10 of the molar value. Read-outs that look alike come from different tables or passages of the source.
How the values were obtained:
[1] = biological target: T1, V600E mutant B-raf (Homo sapiens, UniProt P15056, V600E); test: B-raf cell-based assay (ratio of phospho-ERK1/2 to total ERK1/2 in A375 cells); settings: A375 human melanoma cells, P-ERK/total ERK
T1 construct: A375 cells, a human melanoma cell line having the V600E mutant B-raf is used in this assay; endogenous in cells; host or cells: A375 human melanoma cells
T1 sequence (P15056 whole entry V600E): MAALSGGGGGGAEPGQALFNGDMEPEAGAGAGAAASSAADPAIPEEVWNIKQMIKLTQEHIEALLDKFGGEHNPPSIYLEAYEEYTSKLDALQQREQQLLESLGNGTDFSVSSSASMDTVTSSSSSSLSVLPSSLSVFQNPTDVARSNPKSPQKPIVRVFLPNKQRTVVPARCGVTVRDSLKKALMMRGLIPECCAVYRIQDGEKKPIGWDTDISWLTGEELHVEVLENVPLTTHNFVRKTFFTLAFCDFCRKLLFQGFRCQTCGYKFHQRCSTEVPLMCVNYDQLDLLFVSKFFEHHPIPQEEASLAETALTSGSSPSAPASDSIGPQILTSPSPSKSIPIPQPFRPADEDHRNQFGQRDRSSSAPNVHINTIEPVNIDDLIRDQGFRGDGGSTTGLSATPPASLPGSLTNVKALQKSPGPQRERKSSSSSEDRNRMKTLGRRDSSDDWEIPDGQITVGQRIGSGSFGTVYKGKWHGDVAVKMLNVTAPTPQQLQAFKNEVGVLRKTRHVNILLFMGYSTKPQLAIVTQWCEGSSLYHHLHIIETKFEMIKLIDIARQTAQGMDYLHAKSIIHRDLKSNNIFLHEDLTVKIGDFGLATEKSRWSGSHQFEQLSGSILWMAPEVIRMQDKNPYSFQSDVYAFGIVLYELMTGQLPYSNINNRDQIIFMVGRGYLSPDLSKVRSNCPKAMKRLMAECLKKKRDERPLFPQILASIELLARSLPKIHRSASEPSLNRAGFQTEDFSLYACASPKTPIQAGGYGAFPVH
Experimental: A cell-based assay was optimized to assay the ability of compounds to inhibit B-raf activity in a whole cell context. […] The cell-based assay quantifies the ratio of phospho-ERK1/2 to total ERK1/2 and can thereby assay the cellular inhibition of B-raf kinase activity. A375 cells are plated into 96 well plates and grown to confluence. The cells are then changed into starve media (DMEM/0.1% BSA) for 60 minutes. Compounds in DMSO dose curves are then diluted in starve media and added to cells. […] After a 60 minute incubation the cells are fixed for 20 minutes at RT in 4% formaldehyde with 0.1% Triton X-100, protease and phosphatase inhibitors in PBS. The cells are washed four times in PBS then blocked for 60 minutes using a one to one mix of Odyssey blocking buffer (Li-Cor Biosciences, Inc) and PBS. Primary antibodies (rabbit anti-phospho p42/p44 MAPK (P-ERK1/2) from Cell Signaling Technology and mouse anti-ERK2 from Santa Cruz Biotechnology) are diluted in blocking buffer, added to the cells and incubated overnight at 4° C. The cells are then washed four times in PBS/0.1% Tween-20. Secondary antibodies (anti-mouse IRDye 800CW from Rockland, Inc and anti-rabbit AlexaFlour680 from Molecular Probes) are diluted in blocking buffer/0.5% Tween and incubated on cells for 60 minutes. After 4 washes in PBS/0.1% Tween-20 the microplate is scanned on an Odyssey Infrared Imager (Li-Cor Bioscience) which can read the signal given by the two secondary antibodies on their respective channels. The ratio of P-ERK/total ERK is determined and IC50s generated using Excel-XLfit software.

[2] = biological target: recombinant HuBraf V600E (Homo sapiens, UniProt P15056, V600E); test: B-raf Homogenous Time Resolved Fluorescent (HTRF) kinase assay; format: biochemical; settings: human mutant B-raf V600E, substrate MEK1, 10 uM ATP, read-out: HTRF Enzyme assay Data IC50
recombinant HuBraf V600E, sequence (P15056 whole entry V600E): as above
Experimental: B-raf-Homogenous Time Resolved Fluorescent (HTRF) Kinase Assay
The final concentration of the kinase reaction buffer is 50 mM Tris-HCL pH 7.5, 10 mM MgCl2, 0.5% glucose, 0.5 mM DTT, 0.01% BSA. […] The detection reaction proceeds for one hour and is read on a RubyStar (BMG Labtech) counter. IC50s for the test compounds are generated using Excel-XLfit software.

Row | SMILES | pIC50 ([1]; Table I) | pIC50 ([2]; Table I) | pIC50 ([1]; Table II) | pIC50 ([2]; Table II)
1 | Cc1ccc2c(Nc3ccc(Cl)cc3)nccc2c1Nc1ncccc1-c1ncnc2[nH]ncc12 [Example 67, N5-(3-(1H-pyrazolo[3,4-d]pyrimidin-4-yl)pyridin-2-yl)-N1-(4-chlorophenyl)-6-methylisoquinoline-1,5-diamine] | 8.52 | 8.30 |  | 
2 | Cc1ccc2c(Nc3ccc4c(c3)OC(F)(F)O4)nccc2c1Nc1ncccc1-c1ncnc2cc[nH]c12 [Example 64, N-1-(2,2-difluoro-1,3-benzodioxol-5-yl)-6-methyl-N-5-(3-(5H-pyrrolo[3,2-d]pyrimidin-4-yl)-2-pyridinyl)-1,5-isoquinolinediamine] | 6.95 | 6.52 |  | 
3 | C#Cc1cccc(Nc2nccc3c(Nc4ncccc4-c4ncnc5[nH]ccc45)c(C)ccc23)c1 [Example 43, N-1-(3-ethynylphenyl)-6-methyl-N~5~-(3-(7H-pyrrolo[2,3-d]pyrimidin-4-yl)-2-pyridinyl)-1,5-isoquinolinediamine] | 8.00 | 8.52 |  | 
4 | Cc1ccc2c(Nc3ccc(C#N)cc3)nccc2c1Nc1ncccc1-c1ncnc2[nH]cnc12 [Example 57, 4-((6-methyl-5-((3-(9H-purin-6-yl)-2-pyridinyl)amino)-1-isoquinolinyl)amino)benzonitrile] | 8.40 | 9.22 |  | 
5 | Cc1ccc2c(Nc3ccc4c(c3)OC(F)(F)O4)nccc2c1Nc1ncccc1-c1ncnc2[nH]ncc12 [Example 72, N-1-(2,2-difluoro-1,3-benzodioxol-5-yl)-6-methyl-N-5-(3-(1H-pyrazolo[3,4-d]pyrimidin-4-yl)-2-pyridinyl)-1,5-isoquinolinediamine] |  |  | 7.74 | 7.70
6 | Cc1ccc2c(Nc3cccc(C(F)(F)F)c3)ncnc2c1Nc1ncccc1-c1ncnc2[nH]cnc12 [Example 73, 7-methyl-N-8-(3-(9H-purin-6-yl)-2-pyridinyl)-N-4-(3-(trifluoromethyl)phenyl)-4,8-quinazolinediamine] |  |  | 7.48 | 7.59
7 | Cc1ccc2c(Nc3ccc(C#N)cc3)ncnc2c1Nc1ncccc1-c1ncnc2[nH]ncc12 [Example 70, 4-((7-methyl-8-((3-(1H-pyrazolo[3,4-d]pyrimidin-4-yl)-2-pyridinyl)amino)-4-quinazolinyl)amino)benzonitrile] |  |  | 7.07 | 8.30
8 | Cc1ccc(OC(F)(F)F)cc1Nc1nccc2c(Nc3ncccc3-c3ncnc4[nH]ccc34)c(C)ccc12 [Example 41, 6-methyl-N-1-(2-methyl-5-((trifluoromethyl)oxy)phenyl)-N-5-(3-(7H-pyrrolo[2,3-d]pyrimidin-4-yl)-2-pyridinyl)-1,5-isoquinolinediamine] | 6.97 | 7.46 |  | 
9 | Cc1ccc2c(Nc3ccc(C#N)cc3)ncnc2c1Nc1ncccc1-c1ncnc2[nH]cnc12 [Example 61, 4-((7-methyl-8-((3-(9H-purin-6-yl)-2-pyridinyl)amino)-4-quinazolinyl)amino)benzonitrile] | 6.99 | 8.70 |  | 
10 | Cc1ccc2c(Nc3ccc4ncsc4c3)nccc2c1Nc1ncccc1-c1ncnc2[nH]ccc12 [Example 49, N-1-1,3-benzothiazol-6-yl-6-methyl-N-5-(3-(7H-pyrrolo[2,3-d]pyrimidin-4-yl)-2-pyridinyl)-1,5-isoquinolinediamine] | 8.00 | 8.15 |  | 

The remaining lines, values ahead:

Row | pIC50 ([1]; Table I) | pIC50 ([2]; Table I) | pIC50 ([1]; Table II) | pIC50 ([2]; Table II) | SMILES
11 | 8.22 | 8.22 |  |  | Cc1ccc2c(Nc3cccc(C(F)(F)F)c3)nccc2c1Nc1ncccc1-c1ncnc2[nH]cnc12 [Example 58, 6-methyl-N-5-(3-(9H-purin-6-yl)-2-pyridinyl)-N-1-(3-(trifluoromethyl)phenyl)-1,5-isoquinolinediamine]
12 |  |  | 7.92 | 8.30 | Cc1ccc2c(Nc3ccc(Cl)cc3)ncnc2c1Nc1ncccc1-c1ncnc2[nH]cnc12 [Example 77, N-4-(4-chlorophenyl)-7-methyl-N-8-(3-(9H-purin-6-yl)-2-pyridinyl)-4,8-quinazolinediamine]
13 | 7.64 | 8.52 |  |  | Cc1ccc2c(Nc3ccc(C#N)cc3)nccc2c1Nc1ncccc1-c1ncnc2[nH]ccc12 [Example 40, 4-((6-methyl-5-((3-(7H-pyrrolo[2,3-d]pyrimidin-4-yl)-2-pyridinyl)amino)-1-isoquinolinyl)amino)benzonitrile]
14 |  |  | 7.48 | 7.48 | Cc1ccc2c(N[C@H](C)c3ccc(Cl)cc3)nccc2c1Nc1ncccc1-c1ncnc2[nH]cnc12 [Example 78, N-1-((1R)-1-(4-chlorophenyl)ethyl)-6-methyl-N-5-(3-(9H-purin-6-yl)-2-pyridinyl)-1,5-isoquinolinediamine]
15 | 7.92 | 7.60 |  |  | Cc1ccc2c(Nc3ccc4c(c3)NC(=O)C4(C)C)nccc2c1Nc1ncccc1-c1ncnc2[nH]ccc12 [Example 51, 3,3-dimethyl-6-((6-methyl-5-((3-(7H-pyrrolo[2,3-d]pyrimidin-4-yl)-2-pyridinyl)amino)-1-isoquinolinyl)amino)-1,3-dihydro-2H-indol-2-one]
16 | 6.00 | 7.59 |  |  | Cc1ccc2c(Nc3ccc(Cl)cc3)nccc2c1Oc1ncccc1-c1ncnc2[nH]cnc12 [Example 68, N-(4-chlorophenyl)-6-methyl-5-((3-(9H-purin-6-yl)-2-pyridinyl)oxy)-1-isoquinolinamine]
17 | 8.22 | 8.22 |  |  | Cc1ccc2c(Nc3ccc4c(c3)OC(F)(F)O4)nccc2c1Nc1ncccc1-c1ncnc2[nH]cnc12 [Example 59, N-1-(2,2-difluoro-1,3-benzodioxol-5-yl)-6-methyl-N-5-(3-(9H-purin-6-yl)-2-pyridinyl)-1,5-isoquinolinediamine]
18 | 7.35 | 7.92 |  |  | Cc1ccc2c(Nc3ccc4c(c3)NC(=O)C4)nccc2c1Nc1ncccc1-c1ncnc2[nH]ccc12 [Example 50, 6-((6-methyl-5-((3-(7H-pyrrolo[2,3-d]pyrimidin-4-yl)-2-pyridinyl)amino)-1-isoquinolinyl)amino)-1,3-dihydro-2H-indol-2-one]
19 | 7.96 | 8.00 |  |  | Cc1ccc2c(Nc3ccc4c(c3)NC(=O)[C@@H]4C)nccc2c1Nc1ncccc1-c1ncnc2[nH]ccc12 [Example 47, (3R)-3-methyl-6-((6-methyl-5-((3-(7H-pyrrolo[2,3-d]pyrimidin-4-yl)-2-pyridinyl)amino)-1-isoquinolinyl)amino)-1,3-dihydro-2H-indol-2-one]
20 |  |  | 8.40 | 8.70 | Cc1ccc2c(Nc3ccc(Cl)cc3)nccc2c1Nc1ncncc1-c1ncnc2[nH]cnc12 [Example 69, N-1-(4-chlorophenyl)-6-methyl-N-5-(5-(9H-purin-6-yl)-4-pyrimidinyl)-1,5-isoquinolinediamine]
21 | 6.00 | 6.77 |  |  | Cc1ccc2c(Nc3ccc(C#N)cc3)nccc2c1Nc1ncccc1-c1ncnc2cc[nH]c12 [Example 63, 4-((6-methyl-5-((3-(5H-pyrrolo[3,2-d]pyrimidin-4-yl)-2-pyridinyl)amino)-1-isoquinolinyl)amino)benzonitrile]
22 | 7.55 | 7.60 |  |  | COc1ccc(Nc2nccc3c(Nc4ncccc4-c4ncnc5[nH]ncc45)c(C)ccc23)cc1C(F)(F)F [Example 66, N5-(3-(1H-pyrazolo[3,4-d]pyrimidin-4-yl)pyridin-2-yl)-N1-(4-methoxy-3-(trifluoromethyl)phenyl)-6-methylisoquinoline-1,5-diamine]
23 | 7.82 | 7.96 |  |  | Cc1ccc2c(Nc3ccc4snc(C)c4c3)nccc2c1Nc1ncccc1-c1ncnc2[nH]ccc12 [Example 48, 6-methyl-N-1-(3-methyl-1,2-benzisothiazol-5-yl)-N-5-(3-(7H-pyrrolo[2,3-d]pyrimidin-4-yl)-2-pyridinyl)-1,5-isoquinolinediamine]
24 | 7.07 | 7.82 |  |  | Cc1ccc(C(F)(F)F)cc1Nc1nccc2c(Nc3nc(Cl)ncc3-c3ncnc4[nH]ccc34)c(C)ccc12 [Example 55, N-5-(2-chloro-5-(7H-pyrrolo[2,3-d]pyrimidin-4-yl)-4-pyrimidinyl)-6-methyl-N-1-(2-methyl-5-(trifluoromethyl)phenyl)-1,5-isoquinolinediamine]
25 |  |  | 8.40 | 8.10 | Cc1ccc2c(Nc3ccc4c(c3)OC(F)(F)O4)ncnc2c1Nc1ncccc1-c1ncnc2[nH]cnc12 [Example 74, N-4-(2,2-difluoro-1,3-benzodioxol-5-yl)-7-methyl-N-8-(3-(9H-purin-6-yl)-2-pyridinyl)-4,8-quinazolinediamine]

Source: US8557830B2, “RAF kinase modulators and methods of use” (Amgen Inc., priority 2007, dated 2013)
